Measured values as given in patent US6534503B1, “Melanocortin receptor-3 ligands to treat sexual dysfunction” (Lion Bioscience AG, priority 1998, dated 2003).

Experiments:
[1] = tested on: human subjects; settings: pilot phase I clinical studies (Dorr et al. 1996; Wessells et al. 1998); cited from earlier work
[2] = tested on: Sprague-Dawley rats; experiment: Association of MC-3 with erectile response: HP-228 IP with MC-3-specific antagonist ICV in rats; format: in vivo; settings: rat, HP-228 1.8 mg/kg IP, PBS ICV (no MC-3 antagonist), n=5
Experimental: Sprague-Dawley rats (n=5) received 1.8 mg/kg HP-228 or PBS via IP injection. The rats also received via ICV injection a dose of PBS or MC-3-specific antagonist at 10 μg/5 μl. […] After administration, the rats were observed as described above. All rats received an ICV injection followed by an IP injection 5 to 10 minutes later.
In the negative control rats, receiving only PBS, 0.3 erections per hour were observed. In the positive control rats, receiving HP-228 but no MC-3 antagonist, 3.8 erections per hour were observed.

[3] = tested on: male Sprague-Dawley rats; experiment: Effect of dopamine receptor antagonist sulpiride on erectile effects in rats; format: in vivo; settings: rat
Description: (§1) In both examples, male Sprague-Dawley rats, about 200 to 225 g, were acclimated for 5 days in a reverse light:dark cycle room (dark 10 a.m. to 10 p.m.) before being aseptically ICV cannulated. Rats with indwelling ICV cannulae were housed one per cage. After surgery, 4 days were allowed for recovery and 10 days total were allowed for adaptation to the light cycle. Rats were caged individually after surgery and body weights at the time of treatment averaged 250 g. Otherwise, the procedure is essentially the same as in Example II.
Treatment was between 9:30 a.m. and noon. Each animal received an initial IP injection of vehicle (3 ml/kg PBS) or sulpiride. Sulpiride (Sigma) was administered IP at 50 mg/kg (6 ml/kg IP). Ten minutes later, the animals received a final IP injection of HP-228 or vehicle or a SC injection of apomorphine. HP-228 was administered IP at 2 mg/kg in 3 ml/kg PBS. Apomorphine (Sigma) was administered SC at 0.1 mg/kg (1 ml/kg sterile water).

[4] = tested on: C57/BL6 mice; experiment: Dose-response of HP-228 for inducing erections in mice; format: in vivo; settings: mouse, IP
Experimental: (§2) Adult male Sprague-Dawley rats weighing 220 to 250 g or adult male C57/BL6 mice (Harlan Laboratories; Indianapolis Ind.) were injected intraperitoneally (IP) with 1 ml/kg body weight HP-228 solution or PBS as a negative control. Concentrations of HP-228 were 0.45, 0.9, 1.8, 3.6 and 7.2 mg/ml/kg (n=4 to 6 animals). The animals were allowed 10 minutes to acclimate to the surroundings before observation. The animals were then observed for 60 minutes for penile erections not induced by grooming. Yawning, stretching, grooming behaviors were also recorded.
This example describes a dose-response correlation for using HP-228 to induce erections in mice (n=3 to 5). Age-matched C57/BL6 mice (Harlan Laboratories; Indianapolis Ind.) weighing 20 to 25 g were injected (100 μl/mouse) intraperitoneally essentially as described above and observed.

[5] = tested on: Adult male Sprague-Dawley rats; experiment: Dose-response of HP-228 for inducing erections in rats; format: in vivo; settings: rat, IP
Experimental: This example describes a dose-response correlation for using HP-228 to induce erections in rats.
as §2

[6] = tested on: Adult male rats; experiment: Induction of penile erections in rats after intraperitoneal injection, 60 minute observation; format: in vivo; settings: IP injection of compound alone, 60 min observation, n=6
Experimental: Adult male rats were housed 2 to 3 per cage and were acclimated to the standard vivarium light cycle (12 hr. light, 12 hr. dark), rat chow and water for a least a week prior to testing. All experiments were performed between 9 a.m. and noon and rats were placed in cylindrical, clear plexiglass chambers during the 60 minute observation period. Mirrors were positioned below the chambers to improve viewing.
Observations began 5 minutes after an intraperitoneal injection of either saline or compound. Two observers counted the number of grooming motions, stretches, yawns and spontaneously occurring penile erections not elicited by genital grooming, and then recorded them as they occurred for a total of 60 minutes. Each observer recorded behaviors of 6 rats at the same time. The observers were unaware of the treatment and animals were tested once, with n=6 in each group. HP-228 was used as a positive control for penile erections.
By comparison, IP injection with agonist TRG 2411 #203 alone (shown below) increased the average number of erections observed to 2.7.

[7] = tested on: male Sprague-Dawley rats; experiment: Effect of oxytocin receptor antagonist vasotocin on erectile effects in rats; format: in vivo; settings: rat
Description: as §1
Treatment was between 10 a.m. and 1 p.m. […] Vasotocin (Peninsula Laboratories, San Carlos Calif.) was administered ICV at 100 ng/rat. Oxytocin (Sigma, St. Louis Mo.) was administered ICV at 30 ng/rat (10 μl/rat PBS). Ten minutes later, IP injections of HP-228 or vehicle were given. HP-228 was administered IP at 2 mg/kg in 3 ml/kg PBS. One group of animals received ICV injections of vasotocin and oxytocin ICV injections of 5 μl/rat each at double concentrations for a total of 10 μl injected ICV. In this group, the rats received vasotocin first, followed by oxytocin.

[8] = tested on: Rats; experiment: HP-228-mediated erectile response with MC-3 antagonist TRG 6601 #15—2 ICV in rats; format: in vivo; settings: rat, PBS ICV, HP-228 2 mg/kg/ml IP
Experimental: Rats were obtained and cannulated essentially as described in Example VII. Rats received a 10 μl injection ICV containing antagonist “TRG 6601 #15—2” or vehicle alone. The compound was administered as a 1 mg/ml solution in 5% EtOH/PBS at a dose of […]. Five minutes later, the rats were injected IP with either PBS (1 ml/kg) or HP-228 (2 mg/kg/ml). The animals were observed as in Example VII. Erections per hour and rate of animals responding are shown: […]

[9] = single agent plus PBS: apomorphine 0.1 mg/kg SC, HP-228 2 mg/kg IP, sulpiride 50 mg/kg IP
[10] = single agent plus PBS: oxytocin 30 ng/rat ICV, HP-228 2 mg/kg IP, vasotocin 100 ng/rat ICV

Substance | penile erections in human subjects [1] | erections per hour [2] | response rate, % of animals ([3]; apomorphine and HP-228 groups) | erections per hour [3, 9] | rate of animals responding [3, 9] | avg. erections observed/hour ([4]; 25 μg/mouse HP-228) | avg. erections observed/hour ([4]; 50 μg/mouse HP-228) | avg. erections observed/hour ([4]; 100 μg/mouse HP-228) | avg. erections observed/hour ([4]; 250 μg/mouse HP-228) | avg. erections observed/hour ([5]; 0.45 mg/ml/kg HP-228, 60 min observation) | avg. erections observed/hour ([5]; 0.9 mg/ml/kg HP-228, 60 min observation) | avg. erections observed/hour ([5]; 1.8 mg/ml/kg HP-228, 60 min observation) | avg. erections observed/hour ([5]; 3.6 mg/ml/kg HP-228, 60 min observation) | avg. erections observed/hour ([5]; 7.2 mg/ml/kg HP-228, 60 min observation) | average erections observed per rat per hour [6] | response rate, % of animals ([7]; oxytocin and HP-228 groups) | erections per hour [7, 10] | responder rate of animals (rats responding out of rats) [7, 10] | erections per hour [8] | rate of animals responding [8]
MELANOTAN-II | cause penile erections | – | – | – | – | – | – | – | – | – | – | – | – | – | – | – | – | – | – | –
Ac-Nle-Gln-His-(D)Phe-Arg-(D)Trp-Gly-NH2 [HP-228] | – | 3.8 erections per hour | 100% | 7.3 erections per hour | 5/5 | 3.00 erections/hour | 6.67 erections/hour | 5.33 erections/hour | 3.00 erections/hour | 2.80 erections/hour | 2.60 erections/hour | 3.67 erections/hour | 7.00 erections/hour | 5.75 erections/hour | 4.8 erections per rat per hour | 88%-100% | 4.9 erections per hour | 7/8 | 4.7 erections per hour | 6/6
